Test results as given in patent US9802941B2, “Compounds and methods for inhibiting histone demethylases” (Gilead Sciences, Inc., priority 2014, dated 2017).
Read-outs that look alike come from different tables or passages of the source.

Experiments:
Assay type in all cases: biochemical
[1] = target: T1, KDM4C (JMJD2C) (Homo sapiens, UniProt Q9H3R0); experiment: Histone lysine demethylase AlphaLISA assay, KDM4C
T1 construct: KDM4C; BRIC, Denmark; 1-349; E. coli; host or cells: E. coli
T1 sequence (Q9H3R0 1-349): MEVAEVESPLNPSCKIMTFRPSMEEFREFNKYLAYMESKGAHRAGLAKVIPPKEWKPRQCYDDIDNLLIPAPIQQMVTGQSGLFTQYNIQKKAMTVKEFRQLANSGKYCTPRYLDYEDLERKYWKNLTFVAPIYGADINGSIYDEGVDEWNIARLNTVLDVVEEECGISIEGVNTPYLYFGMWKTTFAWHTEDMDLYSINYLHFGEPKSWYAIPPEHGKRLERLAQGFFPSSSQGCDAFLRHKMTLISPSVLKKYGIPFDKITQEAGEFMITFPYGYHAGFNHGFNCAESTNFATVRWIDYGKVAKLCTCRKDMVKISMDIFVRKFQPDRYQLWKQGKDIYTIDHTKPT
Summary of the method: (§1)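 Enzyme was preincubated in buffer (50 mM Hepes pH 7.4-8.0, 0.003-0.01% Tween-20, 0.1% BSA, 5 μM (NH4)2Fe(SO4)2), then added to compound in DMSO and incubated 10 minutes before substrate. After reaction at room temperature, acceptor and streptavidin donor beads were added and AlphaLISA signal read.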

[2] = target: T2, KDM2B (FBXL10) (Homo sapiens, UniProt Q8NHM5); experiment: Histone lysine demethylase AlphaLISA assay, KDM2B
T2 construct: KDM2B; BPS,; 1-650; Bac; purchased BPS Bioscience, US; host or cells: baculovirus system
T2 sequence (Q8NHM5 1-650): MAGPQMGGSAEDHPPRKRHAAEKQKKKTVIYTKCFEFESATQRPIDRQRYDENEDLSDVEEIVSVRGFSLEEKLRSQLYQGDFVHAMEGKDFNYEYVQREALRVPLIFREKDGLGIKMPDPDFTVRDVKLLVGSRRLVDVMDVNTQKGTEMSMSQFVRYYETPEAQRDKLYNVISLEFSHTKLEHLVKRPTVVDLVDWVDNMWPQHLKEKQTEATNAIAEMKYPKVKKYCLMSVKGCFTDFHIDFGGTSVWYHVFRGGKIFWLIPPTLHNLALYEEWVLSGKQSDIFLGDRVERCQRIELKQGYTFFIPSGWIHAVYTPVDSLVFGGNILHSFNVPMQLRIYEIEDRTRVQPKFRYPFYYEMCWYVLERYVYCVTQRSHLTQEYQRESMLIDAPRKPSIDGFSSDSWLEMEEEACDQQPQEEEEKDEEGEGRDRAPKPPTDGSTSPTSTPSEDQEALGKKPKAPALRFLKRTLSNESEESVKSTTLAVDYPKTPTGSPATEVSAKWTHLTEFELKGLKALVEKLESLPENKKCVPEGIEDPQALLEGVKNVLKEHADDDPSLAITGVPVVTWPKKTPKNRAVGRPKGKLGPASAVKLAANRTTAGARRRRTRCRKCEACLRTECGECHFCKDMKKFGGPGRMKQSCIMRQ
Summary of the method: as §1

[3] = target: T3, PHF8 (KDM7) (Homo sapiens, UniProt Q9UPP1); experiment: Histone lysine demethylase AlphaLISA assay, PHF8
T3 construct: KDM7 (PHF8); BRIC; 1-1322; Bac
Summary of the method: as §1

[4] = target: T4, KDM6A (UTX) (Homo sapiens, UniProt O15550); experiment: Histone lysine demethylase AlphaLISA assay, KDM6A
T4 construct: KDM6A (UTX); BRIC; 919-1401; E. coli; host or cells: E. coli
Description: The compounds of the application, or a pharmaceutically acceptable salt, or solvate, or prodrug thereof, are tested in an in vitro AlphaLISA assay. Enzymes are dissolved in enzyme buffer and incubated before they are added to DMSO solutions of compounds of the application, or a pharmaceutically acceptable salt, or solvate, or prodrug thereof, in enzyme buffer. The reaction mixture is then incubated for an additional period of time before substrate solution is added and then the resulting mixture again incubated. Acceptor beads and suspended Epigenetic Buffer from stock are added and the suspension is again incubated before a suspension of streptavidin donor beads in Epigenetic Buffer is added. After an additional period of incubation, the plates are read.
The ability of compounds of the application to inhibit the histone lysine demethylase activity in vitro of different enzymes was determined.
The reaction mixture was incubated for another 10 minutes before 5 μL of substrate solution was added and the resulting mixture was then incubated at room temperature. […] After incubation at room temperature in the dark, the plates were read.
Enzyme Buffer: 50 mM Hepes (pH 7.4-8.0), 0.003-0.01% Tween-20, 0.1% BSA; 5 μM (NH4)2Fe(SO4)2.

[5] = target: T5, KDM5B (PLU-1) (Homo sapiens, UniProt Q9UGL1); experiment: Histone lysine demethylase AlphaLISA assay, KDM5B
T5 construct: BRIC; 1-809; E. coli; host or cells: E. coli
T5 sequence (Q9UGL1 1-809): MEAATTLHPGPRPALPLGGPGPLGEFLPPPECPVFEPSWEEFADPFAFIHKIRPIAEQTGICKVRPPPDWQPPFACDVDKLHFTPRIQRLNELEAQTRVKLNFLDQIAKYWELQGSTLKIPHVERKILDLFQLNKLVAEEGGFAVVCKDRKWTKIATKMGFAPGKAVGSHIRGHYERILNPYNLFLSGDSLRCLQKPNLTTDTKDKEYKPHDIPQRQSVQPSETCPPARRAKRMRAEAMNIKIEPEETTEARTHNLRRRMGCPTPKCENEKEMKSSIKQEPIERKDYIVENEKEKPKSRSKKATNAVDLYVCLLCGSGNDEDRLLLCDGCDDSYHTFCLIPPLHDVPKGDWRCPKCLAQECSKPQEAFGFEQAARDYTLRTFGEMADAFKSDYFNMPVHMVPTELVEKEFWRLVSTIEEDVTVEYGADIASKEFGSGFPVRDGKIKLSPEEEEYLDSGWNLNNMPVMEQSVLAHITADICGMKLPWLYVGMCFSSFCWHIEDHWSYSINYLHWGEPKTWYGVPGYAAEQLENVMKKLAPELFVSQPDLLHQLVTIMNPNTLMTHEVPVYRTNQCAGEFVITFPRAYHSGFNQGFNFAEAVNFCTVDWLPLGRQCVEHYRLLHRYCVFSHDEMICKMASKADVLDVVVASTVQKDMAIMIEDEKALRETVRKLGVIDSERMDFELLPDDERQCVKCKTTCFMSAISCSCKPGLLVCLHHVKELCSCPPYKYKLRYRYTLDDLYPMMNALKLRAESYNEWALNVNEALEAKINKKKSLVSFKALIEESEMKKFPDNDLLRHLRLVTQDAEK
Summary of the method: as §1

[6] = AlphaLISA assay, read-out: HDME Inhibition KDM4C (IC50)
[7] = AlphaLISA, in vitro, read-out: HDME Inhibition KDM4C
[8] = AlphaLISA assay, read-out: HDME Inhibition KDM2B (IC50)
[9] = AlphaLISA, in vitro, read-out: HDME Inhibition KDM2B
[10] = AlphaLISA assay, read-out: HDME Inhibition PHF8 (IC50)
[11] = AlphaLISA, in vitro, read-out: HDME Inhibition PHF8
[12] = AlphaLISA assay, read-out: HDME Inhibition KDM6A (IC50)
[13] = AlphaLISA, in vitro, read-out: HDME Inhibition KDM6A
[14] = AlphaLISA assay, read-out: HDME Inhibition KDM5B (IC50)
[15] = AlphaLISA, in vitro, read-out: HDME Inhibition KDM5B

T4 sequence (O15550 919-1401): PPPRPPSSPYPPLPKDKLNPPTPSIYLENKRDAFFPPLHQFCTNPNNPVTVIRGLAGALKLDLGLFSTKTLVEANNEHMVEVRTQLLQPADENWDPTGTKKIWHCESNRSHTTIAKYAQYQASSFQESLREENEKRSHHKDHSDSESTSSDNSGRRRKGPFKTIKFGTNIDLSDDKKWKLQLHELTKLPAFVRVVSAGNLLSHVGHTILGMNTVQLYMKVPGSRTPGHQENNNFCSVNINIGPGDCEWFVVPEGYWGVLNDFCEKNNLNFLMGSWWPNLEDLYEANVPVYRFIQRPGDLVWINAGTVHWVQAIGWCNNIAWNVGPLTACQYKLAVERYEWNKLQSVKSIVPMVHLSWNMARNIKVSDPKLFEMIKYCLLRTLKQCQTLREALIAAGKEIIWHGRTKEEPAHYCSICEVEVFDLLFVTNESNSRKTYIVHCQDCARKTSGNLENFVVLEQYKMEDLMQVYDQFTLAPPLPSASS
T3 sequence (Q9UPP1 37-440 limits assumed): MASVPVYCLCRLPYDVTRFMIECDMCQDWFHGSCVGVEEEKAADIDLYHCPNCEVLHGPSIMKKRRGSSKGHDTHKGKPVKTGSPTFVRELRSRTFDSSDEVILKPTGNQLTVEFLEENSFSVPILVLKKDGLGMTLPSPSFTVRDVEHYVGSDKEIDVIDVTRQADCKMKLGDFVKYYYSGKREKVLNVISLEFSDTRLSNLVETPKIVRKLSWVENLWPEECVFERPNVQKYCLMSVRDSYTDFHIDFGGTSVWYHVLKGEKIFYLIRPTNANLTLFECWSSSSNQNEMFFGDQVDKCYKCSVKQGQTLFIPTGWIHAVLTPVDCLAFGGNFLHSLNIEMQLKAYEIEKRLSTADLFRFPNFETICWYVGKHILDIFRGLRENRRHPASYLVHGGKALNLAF

| SMILES | IC50 [1, 6] | IC50 [1, 7] | IC50 [2, 8] | IC50 [2, 9] | IC50 [3, 10] | IC50 [3, 11] | IC50 [4, 12] | IC50 [4, 13] | IC50 [5, 14] | IC50 [5, 15] | IC50 [5] |
| --- | --- | --- | --- | --- | --- | --- | --- | --- | --- | --- | --- |
| COc1ccc(CCn2ccnc2CNCc2cc(C(=O)O)cc(C)n2)cc1 [Compound 17, 2-{[({1-[2-(4-methoxyphenyl)ethyl]-1H-imidazol-2-yl}methyl)amino]methyl}-6-methylpyridine-4-carboxylic acid] | > 10 µM | > 10 µM | > 10 µM | > 10 µM | > 10 µM | > 10 µM | > 10 µM | > 10 µM | > 10 µM | > 10 µM |  |
| C=Cc1cc(C(=O)O)cc(CNCc2nccn2Cc2ccc(F)cc2)n1 [Compound 12, 2-ethenyl-6-{[({1-[(4-fluorophenyl)methyl]-1H-imidazol-2-yl}methyl)amino]methyl}pyridine-4-carboxylic acid] | > 10 µM | > 10 µM |  | 1.6 µM | > 10 µM | > 10 µM | > 10 µM | > 10 µM |  |  | 3.76 µM |
| CCc1cc(C(=O)O)cc(CNCc2nccn2Cc2ccc(F)cc2)n1 [Compound 13, 2-ethyl-6-{[({1-[(4-fluorophenyl)methyl]-1H-imidazol-2-yl}methyl)amino]methyl}pyridine-4-carboxylic acid] | > 10 µM | > 10 µM |  | 2.27 µM |  | 5.78 µM | > 10 µM | > 10 µM | > 10 µM | > 10 µM |  |
| Cc1cc(C(=O)O)cc(CNCc2ncc(C3CCC3)n2Cc2ccc(F)cc2)n1 [Compound 39, 2-{[({5-cyclobutyl-1-[(4-fluorophenyl)methyl]-1H-imidazol-2-yl}methyl)amino]methyl}-6-methyl pyridine-4-carboxylic acid] | > 10 µM | > 10 µM |  | 0.155 µM |  | 0.472 µM | > 10 µM | > 10 µM | > 10 µM | > 10 µM |  |
| COc1ccc(CCn2ccnc2CNCc2cc(C(=O)O)cc(C)n2)cc1OC [Compound 22, 2-{[({1-[2-(3,4-dimethoxyphenyl)ethyl]-1H-imidazol-2-yl}methyl)amino]methyl}-6-methylpyridine-4-carboxylic acid] | > 10 µM | > 10 µM | > 10 µM | > 10 µM | > 10 µM | > 10 µM | > 10 µM | > 10 µM | > 10 µM | > 10 µM |  |
| Cc1cc(C(=O)O)cc(CNCc2nnc(C3CC3)n2Cc2ccc(F)cc2)n1 [Compound 38, 2-{[({5-cyclopropyl-4-[(4-fluorophenyl)methyl]-4H-1,2,4-triazol-3-yl}methyl)amino]methyl}-6-methylpyridine-4-carboxylic acid] | > 10 µM | > 10 µM |  | 2.29 µM | > 10 µM | > 10 µM | > 10 µM | > 10 µM |  |  | 4.62 µM |
| Cc1cc(C(=O)O)cc(CNCCc2ncccc2-c2ccsc2)n1 [Compound 34, 2-methyl-6-[({2-[3-(thiophen-3-yl)pyridin-2-yl]ethyl}amino)methyl]pyridine-4-carboxylic acid] | > 10 µM | > 10 µM |  | 1.24 µM | > 10 µM | > 10 µM | > 10 µM | > 10 µM | > 10 µM | > 10 µM |  |
| Cc1cc(C(=O)O)cc(CN[C@H](CO)CC(C)C)n1 [Compound 23, 2-({[(2S)-1-hydroxy-4-methylpentan-2-yl]amino}methyl)-6-methylpyridine-4-carboxylic acid] | > 10 µM | > 10 µM | > 10 µM | > 10 µM | > 10 µM | > 10 µM | > 10 µM | > 10 µM | > 10 µM | > 10 µM |  |
| Cc1cc(C(=O)O)cc(CNCc2nccn2CCC(C)C)n1 [Compound 18, 2-methyl-6-[({[1-(3-methylbutyl)-1H-imidazol-2-yl]methyl}amino)methyl]pyridine-4-carboxylic acid] | > 10 µM | > 10 µM |  | 3.93 µM |  | 3.03 µM | > 10 µM | > 10 µM | > 10 µM | > 10 µM |  |
